# Measured values taken from BindingDB's records for doi:10.1021/jm030585i (Merck Research Laboratories, 2004).
# Target: T1, Mineralocorticoid receptor (Rattus norvegicus, UniProt P22199)
# T1 sequence (P22199 whole entry): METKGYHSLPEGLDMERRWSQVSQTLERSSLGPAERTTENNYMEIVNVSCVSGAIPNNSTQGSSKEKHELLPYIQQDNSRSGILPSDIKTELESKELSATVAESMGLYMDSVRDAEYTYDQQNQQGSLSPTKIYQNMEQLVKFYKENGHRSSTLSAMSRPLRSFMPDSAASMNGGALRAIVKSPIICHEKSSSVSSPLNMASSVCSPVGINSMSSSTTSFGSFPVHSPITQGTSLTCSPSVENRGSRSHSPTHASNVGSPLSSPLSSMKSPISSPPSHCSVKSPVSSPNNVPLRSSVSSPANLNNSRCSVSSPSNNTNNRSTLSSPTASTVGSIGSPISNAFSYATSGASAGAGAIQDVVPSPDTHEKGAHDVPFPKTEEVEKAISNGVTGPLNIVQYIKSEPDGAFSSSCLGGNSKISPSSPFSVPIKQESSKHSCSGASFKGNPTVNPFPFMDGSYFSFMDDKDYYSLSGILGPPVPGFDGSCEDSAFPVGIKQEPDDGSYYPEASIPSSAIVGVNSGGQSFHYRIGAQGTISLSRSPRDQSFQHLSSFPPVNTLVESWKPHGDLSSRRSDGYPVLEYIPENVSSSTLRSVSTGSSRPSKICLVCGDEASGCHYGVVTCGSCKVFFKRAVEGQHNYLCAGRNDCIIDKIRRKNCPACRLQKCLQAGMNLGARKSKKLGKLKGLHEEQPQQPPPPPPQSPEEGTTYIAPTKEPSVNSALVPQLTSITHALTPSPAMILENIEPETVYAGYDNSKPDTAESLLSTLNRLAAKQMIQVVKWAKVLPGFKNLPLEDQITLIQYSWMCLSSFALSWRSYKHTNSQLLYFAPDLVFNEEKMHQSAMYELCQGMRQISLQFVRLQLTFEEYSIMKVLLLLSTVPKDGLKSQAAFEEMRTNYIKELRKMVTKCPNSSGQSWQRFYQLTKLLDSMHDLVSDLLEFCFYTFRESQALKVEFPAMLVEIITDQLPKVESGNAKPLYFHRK
row,IC50 [µM],Compound
1,> 5,"C=CCC[C@H](O)[C@H]1CCCC2=Cc3c(cnn3-c3ccc(F)cc3)C[C@@]21C [(1S)-1-[(4aR,5S)-1-(4-fluorophenyl)-4a-methyl-1H,4H,4aH,5H,6H,7H,8H-cyclohexa[f]indazol-5-yl]pent-4-en-1-ol]"
2,> 5,"C[C@]12Cc3cnn(-c4ccc(F)cc4)c3C=C1CCC[C@@H]2[C@@H](O)c1ccccc1 [(R)-[(4aR,5S)-1-(4-fluorophenyl)-4a-methyl-1H,4H,4aH,5H,6H,7H,8H-cyclohexa[f]indazol-5-yl](phenyl)methanol]"

# Second part, the compound before the results:
row,Compound,IC50 [µM]
1,"C[C@]12Cc3cnn(-c4ccc(F)cc4)c3C=C1CCC[C@@H]2[C@](C)(O)c1ccc(F)cc1 [(1S)-1-[(4aR,5S)-1-(4-fluorophenyl)-4a-methyl-1H,4H,4aH,5H,6H,7H,8H-cyclohexa[f]indazol-5-yl]-1-(4-fluorophenyl)ethan-1-ol]",> 5
2,"COc1cc([C@H](O)[C@H]2CCCC3=Cc4c(cnn4-c4ccc(F)cc4)C[C@@]32C)cc(F)c1F [(R)-[(4aR,5S)-1-(4-fluorophenyl)-4a-methyl-1H,4H,4aH,5H,6H,7H,8H-cyclohexa[f]indazol-5-yl](3,4-difluoro-5-methoxyphenyl)methanol]",> 5
3,"C[C@]12Cc3cnn(-c4ccc(F)cc4)c3C=C1CCC[C@@H]2[C@@H](O)c1ccc(F)cc1 [BMCL173354 benzo[f]indazole, 6]",> 5
4,"C[C@]12Cc3cnn(-c4ccc(F)cc4)c3C=C1CCC[C@@H]2[C@H](O)c1ccc(F)cc1 [BMCL173354 benzo[f]indazole, 7]",> 5
